Marks after values point to notes of the source that are not given here. Starred links: 1 amine or outer side, 2 acyl side, 3 side chain; linkers in the order of their positions; H or OH if unused. Positions of bridges follow the written chain, without caps; N, C: chain ends. Non-standard residues stand in square brackets, D forms with d. Residues, ends and D or L forms follow the SMILES beside them. *: point of attachment. hTyr(3S-OH,4S-OH,3'-OSO3H) = N[C@H](C(=O)O)[C@H](O)[C@@H](O)c1ccc(O)c(OS(=O)(=O)O)c1; Orn(4R-OH,5R-OH) = O=C([C@H](C[C@@H](O)[C@@H](O)N[*:3])N[*:1])[*:2]; Pro(3S-OH,4S-Me) = C[C@H]1CN[C@H](C(=O)O)[C@H]1O; X2 = CCCCCOc1ccc(-c2cc(-c3ccc(C(=O)*)cc3)no2)cc1; Gln(3R-OH) = NC(=O)C[C@@H](O)[C@H](N)C(=O)O; Hyp = O=C(O)[C@@H]1C[C@@H](O)CN1
Legend:
[1] = ex vivo study by Watt et al., cited from earlier work
[2] = ref DrugBank [12]; cited from earlier work
[3] = ref DrugBank [12]; cited from earlier work; remark: listed apart in the source
[4] = infants on ECMO versus infants not on ECMO; cited from earlier work
[5] = Control group: spontaneous drug degradation in whole blood at 37°C; details: control of Sorin experiment; whole human blood, water bath 37°C 24 h, no circuit; HPLC-MS/MS; % of 2 min concentration; single measurement
Method: Whole blood was collected in polypropylene tubes containing ethylenediaminetetraacetic acid (EDTA) from a post-oxygenator site and chilled to 4°C until further processing. […] Ten milliliters of blood were collected 2 min after the injection of all the drugs, of which 8 ml was divided into 4 tubes and stored at 4°C after 3, 6, 12, and 24 h of immersion in a water bath at 37°C separately as a control group. The blood drug concentration of the remaining 2 ml sample was regarded as the baseline value of all sampling points.
All blood samples were stored at 4°C and centrifuged (10 min at 3,000 × g) within 8 h after sampling, and the plasma was separated and stored in clean polypropylene cryogenic vials at −80°C until analysis. The blood concentration of various drugs was measured through high-performance liquid chromatography-tandem mass spectrometry (HPLC-MS/MS). The recoveries of each drug after different times of circulation were calculated based on the blood concentration at 2 min.

[6] = Drug recovery in the Sorin ECMO circuit; details: 24 h; phosphorylcholine-coated circuit, whole human blood, 37°C; HPLC-MS/MS; % of 2 min concentration; single measurement
Method: Four healthy volunteers were recruited. After obtaining informed consent, 402 ml of blood was collected through the cubitus vein using disposable blood bags (Fresenius Kabi), of which 2 ml was used for a routine blood examination. Sorin (LivaNova, London, United Kingdom) and Maquet (Getinge AB, Hirrlingen, Germany) ECMO circuits were used to establish self-circulation and were primed with fresh whole human blood. After the circulation stabilized, the drugs were added to the circuit. Blood samples were collected at different time points, and the drug concentration was measured to observe the recovery rate of different drugs in the ECMO cycle.
Each circuit consisted of a membrane oxygenator, centrifugal pump, cannula, heat exchanger, and PVC tubing. The materials of each ECMO component are shown in Supplementary Material 1. A reservoir bag containing 30 mL of blood was used to construct a bypass to maintain the pressure of the circuit (Figure 1). Eight hundred milliliters of fresh whole human blood (<1 h old) was used to prime the circuit. Heparin (5,000 U) was added to the circuits to prevent clotting.
The circuit flow rate was controlled at 4–5 L/min. Circuit temperature was maintained at 37°C.
These bolus doses were selected to produce concentrations similar to clinical concentrations. The order of administration was determined according to the half-life from long to short. According to the drug instructions, none of the drugs interact with each other ([12]). Two milliliters of physiological saline solution (0.9%) was used to flush the tube after injection of all drugs to avoid drug loss at the entrance of administration.
In this study, two experiments were carried out and 26 blood samples were analyzed. The first experiment was conducted with the Maquet ECMO circuit. […] The blood samples collected at each time point were measured twice due to the uncertainty of the initial experiment.

CCCCCOc1ccc(-c2cc(-c3ccc(C(=O)N[C@H]4C[C@@H](O)[C@@H](O)NC(=O)[C@@H]5[C@@H](O)[C@@H](C)CN5C(=O)[C@H]([C@H](O)CC(N)=O)NC(=O)[C@H]([C@H](O)[C@@H](O)c5ccc(O)c(OS(=O)(=O)O)c5)NC(=O)[C@@H]5C[C@@H](O)CN5C(=O)[C@H]([C@@H](C)O)NC4=O)cc3)no2)cc1 [Micafungin, micafungin] (X2-[Orn(4R-OH,5R-OH)]T[Hyp][hTyr(3S-OH,4S-OH,3'-OSO3H)][Gln(3R-OH)][Pro(3S-OH,4S-Me)]; lactam 1-C)
Average drug recovery in the control group at 24 h ([1]; control group): 57%
Average drug recovery in the ECMO loop at 24 h [1]: 26–43%
Lipophilicity (log P) [2]: −1.5
Protein binding rate (%) [3]: > 99%
Vd in infants on ECMO, higher than in infants not on ECMO [4]: 20–90%
Drug recovery, Control-24 h (Sorin experiment) [5]: 98.82 (-)^* %
Drug recovery, Sorin circuit, 24 h [6]: 66.85 (-)^* %

Source: publication PMC8671752, “Effects of ex vivo Extracorporeal Membrane Oxygenation Circuits on Sequestration of Antimicrobial Agents” (Frontiers in Medicine, 2021)
